Source: patent publication US20220267271A1, “WNT ACTIVATORS AND METHODS OF USE” (MAYO FOUNDATION FOR MEDICAL EDUCATION AND RESEARCH, priority 2019, published 2022)

Legend:
[1] = tested on: S. typhimuium and E. coli; experiment: Bacterial reverse mutation test, all tested strains (summary); design: species or system Salmonella typhimuium and Escherichia coli; conditions: 400 μM
Description: The bacterial reverse mutation test uses amino acid requiring strains of Salmonella typhimuium and Escherichia coli (E. coli) to detect chemical substances that can produce genetic damage and lead to gene mutations. The mutagenic potential of 1011 and 1015 and their metabolites was assessed by exposing bacterial strains to the compounds and evaluating at 400 μM, and evaluating the numbers of revertant colonies grown in the absence (trace quantities) of the amino acid.
Ames test: According to the OECD Guidelines For Testing Of Chemicals, experiments with the tested agents, positive and negative controls, were conducted in triplicates on 6 tester strains, S. typhimurium: TA98, TA100, TA1535, TA1537 and E. coli: wp2[pKM101]+wp2 uvrA mixed 1:2. Dimethyl sulfoxide (DMSO) was used as the vehicle control for all tester strains in mutagenicity assay with and without metabolic activation. […]
The tester strain (10 μl of overnight culture) was mixed with the test agent (10 μl of the DMSO stock) and GM liquid medium (30 μl) or S9 mix (30 μl). […] The results were expressed as number of revertant colonies per plate. […]

[2] = tested on: E. coli: wp2[pKM101]+wp2 uvrA; experiment: Ames test, bacterial reverse mutation assay, E. coli; design: species or system Escherichia coli; conditions: 1011 and 1015 at 400 μM, mean ± SD, n = 3
Description: (§1) Ames test: According to the OECD Guidelines For Testing Of Chemicals, experiments with the tested agents, positive and negative controls, were conducted in triplicates on 6 tester strains, S. typhimurium: TA98, TA100, TA1535, TA1537 and E. coli: wp2[pKM101]+wp2 uvrA mixed 1:2. Dimethyl sulfoxide (DMSO) was used as the vehicle control for all tester strains in mutagenicity assay with and without metabolic activation. Compounds with known mutagenic activity were used as the positive controls in mutagenicity assay without metabolic activation: 2-nitrofluorene (0.1 μg/plate) for TA98, 4-nitroquinoline N-oxide (0.1 μg/plate) for TA100, sodium azide (0.2 μg/plate) for TA1535, 9-aminoacridine (7.5 μg/plate) for TA1537, and 4-nitroquinoline N-oxide (0.1 μg/plate) for E. coli. 2-Aminoantracene in final concentration 0.4 μg/ml was used as the positive control (the solution of 2-aminoantracene in DMSO was prepared immediately before experiment) in test with metabolic activation. For each experiment tester strain cultures were grown overnight in Oxoid nutrient broth #2 at 37° C. with shaking at 235 rpm to a density of 1-2×10^9 colony forming units/ml (OD600˜1.5). The S9 mix, which is consist of 9000 g supernatant fraction of rat liver homogenate (S9 fraction), was prepared immediately prior to its use in experimental procedure.
(§2) The tester strain (10 μl of overnight culture) was mixed with the test agent (10 μl of the DMSO stock) and GM liquid medium (30 μl) or S9 mix (30 μl). Then, 200 μl of molten top agar supplemented with histidine/biotin (final concentration 0.05 mM) for S. typhimurium and tryptophan (final concentration 0.025 mM) for E. coli were added to the tube (top agar was kept at 44° C. to prevent hardening). The mixed suspension was poured onto the surface of a GM agar plate (2.0 ml of GM agar per plate). After the top agar solidified, the plates were inverted and incubated at 37° C. for 48 hours. The results were expressed as number of revertant colonies per plate. The final concentrations of the test compounds in the mutagenicity assay with all tester strains in both the presence and absence of S9 mix were 400 μM. All concentrations were tested in triplicates.

[3] = tested on: S. typhimurium TA100; experiment: Ames test, bacterial reverse mutation assay, TA100; design: species or system Salmonella typhimuium; conditions: 1011 and 1015 at 400 μM, mean ± SD, n = 3
Description: as §1, §2

[4] = tested on: hCMEC/D3 cells; experiment: Cell viability assay (CellTiter-Glo) in hCMEC/D3 cells; type: cell-based, human; conditions: hCMEC/D3 cells, 0.3, 1, 3, 10 and 30 μM, 24 h
Description: The human brain endothelial capillary hCMEC/D3 cells were cultured with compounds at the indicated concentrations for 24 h. Cell viability was assessed by the Cell TitreGlo Assay system from Promega. Data represent mean±SD from three independent experiments. *P<0.05.
Cell viability assay: Human blood-brain barrier hCMEC/D3 cells were seeded into 96-well tissue culture treated microtiter plates at a density of 20,000 cells/well. After 24 h incubation, the cells were treated with the test compounds at the indicated concentrations for 24 h. Cell viability was measured by the CellTiter-Glo Assay (Promega), which is a luminescent assay that is an indicator of live cells as a function of metabolic activity and ATP content.

[5] = tested on: E. coli strain TOP10-pTac-lux-CDABE; experiment: Bacterial cytotoxicity evaluation (luminescence); conditions: 6.25-400 μM, 4 h
Description: In addition, bacterial cytotoxicity evaluation was performed using E. coli strain TOP10-pTac-lux-CDABE, expressing both luciferase (a heterodimer of LuxA and LuxB subunits) and the enzymes required for the production of luciferase substrate (LuxC, LuxD and LuxE). For the experiment, bacterial culture was grown overnight in LB medium at 37° C. with shaking at 250 rpm. The overnight culture was diluted 1:666 into fresh LB medium supplemented with 50 μg/ml kanamycin and incubated at 37° C. and 250 rpm to OD600 0.4-0.5. Serial dilutions of the test compounds in DMSO were prepared (40 mM, 20 mM, 10 mM, 5 mM, 2.5 mM, 1.25 mM, 0.625 mM) and 4 μl aliquots of each solution were transferred into 96-well plate and mixed with 96 μl of 0.9% NaCl. Then, 10 μl of the dilutions were dispensed into the appropriate wells of 384-well white screening microplate. 30 μl aliquots of freshly grown bacterial culture at OD600 of 0.4-0.5 were added to each well with compounds' dilutions (Final concentration of the test compounds were 400 μM, 200 μM, 100 μM, 50 μM, 25 μM, 12.5 μM, 6.25 μM). The plate was incubated for 4 h at 37° C. and the luminescence.

[6] = tested on: S. typhimurium TA1535; experiment: Ames test, bacterial reverse mutation assay, TA1535; design: species or system Salmonella typhimuium; conditions: 1011 and 1015 at 400 μM, mean ± SD, n = 3
Description: as §1, §2

[7] = with metabolic activation (S9 mix)

SMILES: CC1CCCC(C)N1CCNC(=O)c1ccc(C(=O)Nc2ccccc2N)nc1 (stereo not drawn) [Compound 1011]
- mutagenic effects of test compounds and their metabolites [1]: no mutagenic effects
- Number of revertant colonies per plate, E. coli [2, 7]: 9.7 ± 3.2 revertant colonies per plate
- Number of revertant colonies per plate, E. coli ([2]; without metabolic activation): 8.7 ± 2.1 revertant colonies per plate
- Number of revertant colonies per plate, TA100 [3, 7]: 4.7 ± 2.1 revertant colonies per plate
- Number of revertant colonies per plate, TA100 ([3]; without metabolic activation): 4.3 ± 3.5 revertant colonies per plate
- cytotoxicity (cell viability) [4]: not toxic at all the tested concentrations
- cytotoxicity for bacterial cells [5]: no cytotoxicity
- Number of revertant colonies per plate, TA1535 [6, 7]: 0.7 ± 0.6 revertant colonies per plate
- Number of revertant colonies per plate, TA1535 ([6]; without metabolic activation): 1.7 ± 2.1 revertant colonies per plate

SMILES: Nc1ccccc1NC(=O)c1ccc(C(=O)NCC2CCN2C2CCCC2)cn1 (stereo not drawn) [Compound 1015]
- mutagenic effects of test compounds and their metabolites [1]: no mutagenic effects
- Number of revertant colonies per plate, E. coli [2, 7]: 9.0 ± 2.7 revertant colonies per plate
- Number of revertant colonies per plate, E. coli ([2]; without metabolic activation): 5.3 ± 4.7 revertant colonies per plate
- Number of revertant colonies per plate, TA100 [3, 7]: 2.0 ± 1.0 revertant colonies per plate
- Number of revertant colonies per plate, TA100 ([3]; without metabolic activation): 1.33 ± 0.6 revertant colonies per plate
- cytotoxicity (cell viability) [4]: not toxic at or below the 10 μM concentration
- cytotoxicity for bacterial cells [5]: no cytotoxicity
- Number of revertant colonies per plate, TA1535 [6, 7]: 0.7 ± 1.2 revertant colonies per plate
- Number of revertant colonies per plate, TA1535 ([6]; without metabolic activation): 0.3 ± 0.6 revertant colonies per plate
